pIC50: −log10 of the molar value.
Target: T1, Human CD73 (Homo sapiens, UniProt P21589)
T1 construct: purchased R&D Systems; host or cells: CHO cells
T1 sequence (P21589 27-549): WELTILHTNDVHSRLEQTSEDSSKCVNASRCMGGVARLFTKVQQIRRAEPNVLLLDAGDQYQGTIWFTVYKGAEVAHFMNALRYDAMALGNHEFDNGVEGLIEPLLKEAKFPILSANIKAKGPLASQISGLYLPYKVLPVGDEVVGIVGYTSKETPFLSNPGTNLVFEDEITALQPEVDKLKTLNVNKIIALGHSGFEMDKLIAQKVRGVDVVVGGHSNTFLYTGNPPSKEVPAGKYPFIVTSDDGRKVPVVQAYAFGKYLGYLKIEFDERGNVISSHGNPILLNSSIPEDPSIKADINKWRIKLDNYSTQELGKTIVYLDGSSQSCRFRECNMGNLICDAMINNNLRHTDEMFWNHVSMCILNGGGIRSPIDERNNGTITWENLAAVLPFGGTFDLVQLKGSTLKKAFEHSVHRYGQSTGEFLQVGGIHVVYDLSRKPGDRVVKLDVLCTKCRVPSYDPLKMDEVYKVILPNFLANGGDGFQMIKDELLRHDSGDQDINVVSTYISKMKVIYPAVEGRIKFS
Test: CD73 Enzyme Assay
Assay type: biochemical
Conditions: not given

SMILES | pIC50
O=P(O)(COC[C@H]1O[C@@H](n2ccc3c(NC4CCCC4)nc(Cl)nc32)[C@H](O)[C@@H]1O)Oc1ccc(F)cc1 [Compound 228, [(2R,3S,4R,5R)-5-[2-chloro-4-(cyclopentyl-amino)pyrrolo[2,3-d]-pyrimidin-7-yl]-3,4-dihydroxy-tetrahydro-furan-2-yl]methoxy-methyl-(4-fluoro-phenoxy)phosphinic acid] | < 6.00
O=P(O)(COC[C@H]1O[C@@H](n2ccc3c(NC4CCCC4)nc(Cl)nc32)[C@H](O)[C@@H]1O)Oc1cccnc1 [Compound 233, [(2R,3S,4R,5R)-5-[2-chloro-4-(cyclopentyl-amino)pyrrolo[2,3-d]-pyrimidin-7-yl]-3,4-dihydroxy-tetrahydro-furan-2-yl]methoxy-methyl-(3-pyridyloxy)-phosphinic acid] | > 8.00
CCOP(=O)(COC[C@H]1O[C@@H](n2ccc3c(NC4CCCC4)nc(Cl)nc32)[C@H](O)[C@@H]1O)OCC [Compound 185] | < 6.00

Same assay, conditions: 0.25 nM hCD73, 25 μM AMP, kinetic read at 360 nm; read-out: CD73 Enzyme Assay IC50

pIC50 | SMILES
< 6.00 | CC(C)(C)C(=O)OCOP(=O)(C[S+]([O-])C[C@H]1O[C@@H](n2ccc3c(NC4CCCC4)nc(Cl)nc32)[C@H](O)[C@@H]1O)OCOC(=O)C(C)(C)C (stereo partly drawn) [Compound 166, [[(2S,3S,4R,5R)-5-[2-chloro-4-(cyclopentyl-amino)pyrrolo[2,3-d]-pyrimidin-7-yl]-3,4-dihydroxy-tetrahydro-furan-2-yl]methyl-sulfinylmethyl-(2,2-dimethylpropanoyloxy-methoxy)phosphoryl]-oxymethyl 2,2-dimethylpropanoate]
< 6.00 | O=P(O)(O)C(c1ccccc1)S(=O)(=O)C[C@H]1O[C@@H](n2cnc3c(NCc4ccccc4)ncnc32)[C@H](O)[C@@H]1O (stereo partly drawn) [Compound 150, [[(2S,3S,5R)-5-[6-(benzylamino)purin-9-yl]-3,4-dihydroxy-tetrahydrofuran-2-yl]methylsulfonyl-phenylmethyl]phos-phonic acid]
< 6.00 | N#Cc1ncnc2c1ncn2[C@@H]1O[C@H](COCP(=O)(O)O)[C@@H](O)[C@H]1O [Compound 47, [(2R,3S,4R,5R)-5-(6-cyanopurin-9-yl)-3,4-dihydroxy-tetrahydro-furan-2-yl]methoxy-methylphosphonic acid]
< 6.00 | CS(=O)(=O)c1cccc(CNc2ncnc3c2ncn3[C@@H]2O[C@H](COCP(=O)(O)O)[C@@H](O)[C@H]2O)c1 [Compound 66]
6.00 to 7.00 | O=P(O)(O)COC[C@H]1O[C@@H](n2cnc3c(NCc4ccccc4)nc(-c4cn[nH]c4)nc32)[C@H](O)[C@@H]1O [Compound 10, [(2R,3S,4R,5R)-5-[6-(benzylamino)-2-(1H-pyrazol-4-yl)purin-9-yl]-3,4-dihydroxy-tetrahydrofuran-2-yl]-methoxymethylphos-phonic acid]
6.00 to 7.00 | O=P(O)(O)COC[C@H]1O[C@@H](n2ccc3c(N[C@@H]4CCNC4)nc(Cl)nc32)[C@H](O)[C@@H]1O [Compound 241, [(2R,3S,4R,5R)-5-[2-chloro-4-[[(3R)-pyrrolidin-3-yl]amino]-pyrrolo[2,3-d]pyrimidin-7-yl]-3,4-dihydroxy-tetrahydrofuran-2-yl]-methoxymethylphos-phonic acid]
< 6.00 | CNc1ncnc2c1ncn2[C@@H]1O[C@H](COCP(=O)(O)O)[C@@H](O)[C@H]1O [Compound 11, [(2R,3S,4R,5R)-3,4-dihydroxy-5-[6-(methylamino)purin-9-yl]tetrahydrofuran-2-yl]methoxymethyl-phosphonic acid]
< 6.00 | O=P(O)(O)COC[C@H]1O[C@@H](n2cnc3c(O)ncnc32)[C@H](O)[C@@H]1O [Compound 48]
6.00 to 7.00 | C[C@H](Nc1ncnc2c1ncn2[C@@H]1O[C@H](COCP(=O)(O)O)[C@@H](O)[C@H]1O)c1ccccc1F [Compound 51, [(2R,3S,4R,5R)-5-[6-[[(1S)-1-(2-fluoro-phenyl)ethyl]amino]-purin-9-yl]-3,4-dihydroxy-tetrahydro-furan-2-yl]methoxy-methylphosphonic acid]
6.00 to 7.00 | C[C@H](Nc1ncnc2c1ncn2[C@@H]1O[C@H](COCP(=O)(O)O)[C@@H](O)[C@H]1O)c1cccc(F)c1 [Compound 50, [(2R,3S,4R,5R)-5-[6-[[(1S)-1-(3-fluoro-phenyl)ethyl]amino]-purin-9-yl]-3,4-dihydroxy-tetrahydro-furan-2-yl]methoxy-methylphosphonic acid]
< 6.00 | O=P(O)(O)COC[C@H]1O[C@@H](n2cnc3c(NCc4ccncc4)ncnc32)[C@H](O)[C@@H]1O [Compound 28, [(2R,3S,4R,5R)-3,4-dihydroxy-5-[6-(4-pyridylmethylamino)-purin-9-yl]tetrahydro-furan-2-yl]methoxy-methylphosphonic acid]
6.00 to 7.00 | CN(C)C(=O)COP(=O)(O)COC[C@H]1O[C@@H](n2ccc3c(NC4CCCC4)nc(Cl)nc32)[C@H](O)[C@@H]1O [Compound 234, [(2R,3S,4R,5R)-5-[2-chloro-4-(cyclopentyl-amino)pyrrolo[2,3-d]-pyrimidin-7-yl]-3,4-dihydroxy-tetrahydro-furan-2-yl]methoxy-methyl-[2-(dimethyl-amino)-2-oxo-ethoxy]-phosphinic acid]
< 6.00 | O=P(O)(O)COC[C@H]1O[C@@H](n2cnc3c(-c4ccccc4F)ncnc32)[C@H](O)[C@@H]1O [Compound 53, [(2R,3S,4R,5R)-5-[6-(2-fluorophenyl)purin-9-yl]-3,4-dihydroxy-tetrahydrofuran-2-yl]methoxymethyl-phosphonic acid]
< 6.00 | NS(=O)(=O)c1cccc(CNc2ncnc3c2ncn3[C@@H]2O[C@H](COCP(=O)(O)O)[C@@H](O)[C@H]2O)c1 [Compound 63]
< 6.00 | O=P(O)(O)COC[C@H]1O[C@@H](n2cnc3c(NCc4cccc(CO)c4)ncnc32)[C@H](O)[C@@H]1O [Compound 64, [(2R,3S,4R,5R)-3,4-dihydroxy-5-[6-[[3-(hydroxymethyl)-phenyl]methylamino]-purin-9-yl]tetrahydro-furan-2-yl]methoxy-methylphosphonic acid]
< 6.00 | O=P(O)(O)COC[C@H]1O[C@@H](n2cnc3c(NC4(c5ccccc5)CC4)ncnc32)[C@H](O)[C@@H]1O [Compound 23]
6.00 to 7.00 | O=P(O)(O)COC[C@H]1O[C@@H](n2ccc3c(NC4CCCC4)nc(OCc4ccccn4)nc32)[C@H](O)[C@@H]1O [Compound 264, [(2R,3S,4R,5R)-5-[4-(cyclopentylamino)-2-(2-pyridylmethoxy)-pyrrolo[2,3-d]pyrimidin-7-yl]-3,4-dihydroxy-tetrahydrofuran-2-yl]-methoxymethylphos-phonic acid]
6.00 to 7.00 | O=P(O)(O)COC[C@H]1O[C@@H](n2cnc3c(NCc4ccccc4)nc(-c4ccccc4)nc32)[C@H](O)[C@@H]1O [Compound 8, [(2R,3S,4R,5R)-5-[6-(benzylamino)-2-phenyl-purin-9-yl]-3,4-dihydroxy-tetrahydrofuran-2-yl]methoxymethylphosphonic acid]
< 6.00 | NC(=O)c1cccc(CNc2ncnc3c2ncn3[C@@H]2O[C@H](COCP(=O)(O)O)[C@@H](O)[C@H]2O)c1 [Compound 65, [(2R,3S,4R,5R)-5-[6-[(3-carbamoylphenyl)-methylamino]purin-9-yl]-3,4-dihydroxy-tetrahydrofuran-2-yl]-methoxymethylphos-phonic acid]
6.00 to 7.00 | O=C(OCOP(=O)(COC[C@H]1O[C@@H](n2ccc3c(NC4CCCC4)nc(Cl)nc32)[C@H](O)[C@@H]1O)OCOC(=O)N1CCOCC1)N1CCOCC1 [Compound 238, [[(2R,3S,4R,5R)-5-[2-chloro-4-(cyclopentyl-amino)pyrrolo[2,3-d]-pyrimidin-7-yl]-3,4-dihydroxy-tetrahydro-furan-2-yl]methoxy-methyl-(morpholine-4-carbonyloxymeth-oxy)phosphoryl]oxy-methyl morpholine-4-carboxylate]
6.00 to 7.00 | C=Cc1nc(NC(C)C)c2ncn([C@@H]3O[C@H](COCP(=O)(O)O)[C@@H](O)[C@H]3O)c2n1 [Compound 40, [(2R,3S,4R,5R)-3,4-dihydroxy-5-[6-(iso-propylamino)-2-vinyl-purin-9-yl]tetrahydro-furan-2-yl]methoxy-methylphosphonic acid]
< 6.00 | O=P(O)(O)COC[C@H]1O[C@@H](n2cnc3c(NCCO)ncnc32)[C@H](O)[C@@H]1O [Compound 13, [(2R,3S,4R,5R)-3,4-dihydroxy-5-[6-(2-hydroxyethylamino)-purin-9-yl]tetrahydro-furan-2-yl]methoxy-methylphosphonic acid]
6.00 to 7.00 | O=P(O)(O)COC[C@H]1O[C@@H](n2cnc3c(N4CCCC4c4ccccc4)ncnc32)[C@H](O)[C@@H]1O (stereo partly drawn) [Compound 45, [(2R,3S,4R,5R)-3,4-dihydroxy-5-[6-(2-phenylpyrrolidin-1-yl)-purin-9-yl]tetrahydro-furan-2-yl]methoxy-methylphosphonic acid]
< 6.00 | O=P(O)(O)CSC[C@H]1O[C@@H](n2cnc3c(NCc4ccccc4)ncnc32)[C@H](O)[C@@H]1O [Compound 151, [(2S,3S,5R)-5-[6-(benzylamino)purin-9-yl]-3,4-dihydroxy-tetrahydrofuran-2-yl]methylsulfanyl-methylphosphonic acid]

Same assay, conditions: read-out: CD73 Enzyme Assay IC50

SMILES | pIC50
NS(=O)(=O)c1ccc(CNc2ncnc3c2ncn3[C@@H]2O[C@H](COCP(=O)(O)O)[C@@H](O)[C@H]2O)cc1 [Compound 59] | < 6.00
O=P(O)(O)CS(=O)(=O)C[C@H]1O[C@@H](n2cnc3c(NCc4ccccc4)ncnc32)[C@H](O)[C@@H]1O [Compound 148] | < 6.00
